Data: patent US11666644B2, “Peptide vaccines” (TREOS BIO LIMITED, priority 2018, dated 2023)

Assays:
HLA class I [1] = assay: PEPI3+ Test: 9 mer epitopes binding to at least 3 HLA class I of individuals in the Model Population (n=433); design: species or system human; details: B % multiplied by N % (antigen expression frequency in gastric cancers)
Source text: Predicted binding between particular HLA and epitopes (9 mer peptides) was based on the Immune Epitope Database tool for epitope prediction (iedb.org).
The validated HLA-epitope binding prediction process was used to determine all HLA-epitope binding pairs described in the Examples below.
An in silico human trial cohort of 433 subjects with complete 4-digit HLA class I […] genotype (2×HLA-A*xx:xx; 2×HLA-B*xx:xx; 2×HLA-C*xx:xx) and demographic […] information was compiled. This Model Population has subjects with mixed ethnicity having a total of 152 different HLA alleles that are representative for >85% of presently known allele G-groups.
To select immunogenic peptides from the target CTAs, the PEPI3+ Test and the Model Population described in Example 8 were used to identify the 9 mer epitopes (PEPI3+s) that are most frequently presented by at least 3 HLAs of the individuals in the Model Population. These epitopes are referred to herein as “bestEPIs”. An illustrative example of the “PEPI3+ hotspot” analysis and bestEPI identification is shown in FIG. 15 for the PRAME antigen.
The reported expression frequency for each CTA was multiplied by the frequency of the PEPI3+ hotspots in the Model Population to identify the T cell epitopes (9 mers) that will induce a cytotoxic T cell response against gastric cancer antigens in the highest proportion of individuals (Table 20a). 15 mers were then selected encompassing each of the selected 9 mers (Table 20a). The 15 mers were selected to bind to most HLA class II alleles of most subjects. These 15 mers can induce both CTL and T helper responses in the highest proportion of subjects.

HLA class I [2] = assay: as above; design: species or system human; details: N % (antigen expression frequency in lung cancers) multiplied by B %
[3] = system: metastatic ovarian adenocarcinoma; assay: Patient-A clinical outcome and tumor MRI findings (lesion responses); type: in vivo, human
Source text: For treatment of Patient-A the 13 peptides were formulated as 4×3 or 4 peptide (POC01/1, POC01/2, POC01/3, POC01/4). One treatment cycle is defined as administration of all 13 peptides within 30 days.
2017-2018: Patient-A received 8 cycles of vaccination as add-on therapy, and lived 17 months (528 days) after start of the treatment. […] They died in October 2018.
Patient's tumor MRI findings (Baseline Apr. 15, 2016) (BL: baseline for tumor response evaluation on FIG. 35)
• Rapid progression in lymph nodes, hepatic, retroperitoneal and thoracic areas, significant pleural fluid and ascites. Initiate Carboplatin, Gemcitabine, Avastin. Sep. […] Nov. […] Remission in hepatic, retroperitoneal area and lymph nodes Apr. 13, 2018: Progression • Complete remission in the thoracic and retroperitoneal regions. Progression in hepatic centers and lymph nodes Jun. […] Minimal regression in hepatic centers and lymph nodes July 2018: Progression October 2018: Patient-A died Partial MRI data for Patient-A is shown in Table 23 and FIG. 35.

Row | Molecule | B % * N % (HLA class I [1]) | N % * B % (HLA class I [2]) | other results
1 | 1 (KMMKRLMTV; MAGE-C1 9mer) [compound 1] | 43% | – | –
2 | 2 (KMHSLLALM; CAGE-1 9mer) [compound 2] | 33% | – | –
3 | 3 (FSYEQDPTL; TSP50 9mer) [compound 3] | 29% | – | –
4 | 4 (YLRLHRHAY; DPPA2 9mer) [compound 4] | 28% | – | –
5 | 5 (LQYENSIML; HIWI 9mer) [compound 5] | 28% | – | –
6 | 6 (RAIEQLAAM; SURVIVIN 9mer) [compound 6] | 26% | – | –
7 | 7 (FVASINEGM; HIWI 9mer) [compound 7] | 21% | – | –
8 | 8 (TTMETQFPV; TSP50 9mer) [compound 8] | 21% | – | –
9 | 9 (LASNHFLYL; 5T4 9mer) [compound 9] | 21% | – | –
10 | 10 (FLYLPRDVL; 5T4 9mer) [compound 10] | 21% | – | –
11 | 11 (SSFSSSAPF; 5T4 9mer) [compound 11] | 17% | – | –
12 | 12 (FAHPRKLLM; MAGE-A2 9mer) [compound 12] | 17% | – | –
13 | 13 (SSNSTALAL; KK-LC-1 9mer) [compound 13] | 17% | – | –
14 | 14 (STNALIQPV; CAGE-1 9mer) [compound 14] | 16% | – | –
15 | 15 (STFKNWPFL; SURVIVIN 9mer) [compound 15] | 15% | – | –
16 | 16 (FSTTINYTL; MAGE-A2 9mer) [compound 16] | 12% | – | –
17 | 17 (ILNNFPHSI; KK-LC-1 9mer) [compound 17] | 11% | – | –
18 | 18 (FVQENYLEY; MAGE-A3 9mer) [compound 18] | 10% | – | –
19 | 19 (ITMPFSSPM; LAGE-1 9mer) [compound 19] | 9% | – | –
20 | 21 (YEDHFPLLF; MAGE-A10 9mer) [compound 21] | 8% | – | –
21 | 22 (TSYVKVLEY; MAGE-A1 9mer) [compound 22] | 8% | – | –
22 | 24 (NTDNNLAVY; KK-LC-1 9mer) [compound 24] | 8% | – | –
23 | 25 (KAMVQAWPF; PRAME 9mer) [compound 25] | 7% | – | –
24 | 27 (SAFPTTINF; MAGE-A1 9mer) [compound 27] | 7% | – | –
25 | 28 (MTFGRLHRI; SSX1 9mer) [compound 28] | 7% | – | –
26 | 29 (RALAETSYV; MAGE-A1 9mer) [compound 29] | 5% | – | –
27 | 30 (HVMNPLETL; PRAME 9mer) [compound 30] | 4% | – | –
28 | 90 (FAADVRLMF; BRDT 9mer) [compound 90] | – | 28% | –

Row | Molecule | B % * N % (HLA class I [1]) | N % * B % (HLA class I [2]) | other results
29 | 91 (KAMVQAWPF; PRAME 9mer) [compound 91] | – | 23% | –
30 | 92 (FSWPFQRPV; BRDT 9mer) [compound 92] | – | 21% | –
31 | 93 (YSSFVFNLF; NALP4 9mer) [compound 93] | – | 19% | –
32 | 94 (RAMEAFNLV; NALP4 9mer) [compound 94] | – | 18% | –
33 | 95 (FVIDSFEEL; NALP4 9mer) [compound 95] | – | 17% | –
34 | 97 (FAHPRKLLM; MAGE-A2 9mer) [compound 97] | – | 15% | –
35 | 98 (RAIEQLAAM; SURVIVIN 9mer) [compound 98] | – | 15% | –
36 | 99 (YIAQFTSQF; PRAME 9mer) [compound 99] | – | 14% | –
37 | 100 (HVMNPLETL; PRAME 9mer) [compound 100] | – | 14% | –
38 | 101 (FQDFFPVIF; MAGE-A12 9mer) [compound 101] | – | 13% | –
39 | 102 (LLRHVMNPL; PRAME 9mer) [compound 102] | – | 13% | –
40 | 103 (KMMKRLMTV; DPPA2 9mer) [compound 103] | – | 13% | –
41 | 104 (FVLANGHIL; NY-SAR-35 9mer) [compound 104] | – | 12% | –
42 | 105 (MLAKKHFSY; BRDT 9mer) [compound 105] | – | 11% | –
43 | 106 (SVMDLVGSI; LDHC 9mer) [compound 106] | – | 11% | –
44 | 107 (MMDLQHGSL; LDHC 9mer) [compound 107] | – | 11% | –
45 | 108 (FSTTINYTL; MAGE-A2 9mer) [compound 108] | – | 10% | –
46 | 109 (MASESLSVM; MAGE-C2 9mer) [compound 109] | – | 10% | –
47 | 110 (FVYGEPREL; MAGE-C2 9mer) [compound 110] | – | 10% | –
48 | 112 (FVQENYLEY; MAGE-A3 9mer) [compound 112] | – | 9% | –
49 | 114 (STFKNWPFL; SURVIVIN 9mer) [compound 114] | – | 9% | –
50 | 115 (YLRLHRHAY; DPPA2 9mer) [compound 115] | – | 9% | –
51 | 117 (SSNSTALAL; KK-LC-1 9mer) [compound 117] | – | 7% | –
52 | 118 (FSTSSSLIL; MAGE-C2 9mer) [compound 118] | – | 7% | –
53 | 119 (RALAETSYV; MAGE-A1 9mer) [compound 119] | – | 5% | –
54 | O=C(c1cc(Cc2n[nH]c(=O)c3ccccc23)ccc1F)N1CCN(C(=O)C2CC2)CC1 [Olaparib] | – | – | FU2 (% Δ from BL) ([3]; SUM of lesions, Dec. 25, 2016, before PIT vaccine treatment): −76.0%; FU2 (% Δ from BL) ([3]; lesion TL2, Dec. 25, 2016, before PIT vaccine treatment): −100.0%; FUI (% Δ from BL) ([3]; lesion TL2, follow up 1, Olaparib treatment May 2016-January 2017): −100.0%; Best Response Cycle ([3]; lesion TL2, follow-up time point of best response): FU1; FU2 (% Δ from BL) ([3]; lesion TL4, Dec. 25, 2016, before PIT vaccine treatment): −100.0%; Best Response Cycle ([3]; lesion TL4, follow-up time point of best response): FU2
55 | SEQ ID NO: 111: 9 mer bestEPI of MAGE-C2 within 15 mer SEQ ID NO: 141; printed 'ill' (SVMSSNVSF; MAGE-C2 9mer) | – | 9% | –
